Experimental data published in patent US12043870B2, “Methods and compositions for detecting and modulating an immunotherapy resistance gene signature in cancer” (The Broad Institute, Inc., priority 2017, dated 2024).
Where “and” joins values, the source holds several entries; their conditions need not be identical. Identical values can stand only once.

Assays:
[1] = tested on: IGR37; assay: scRNA-seq of melanoma cell line before and after treatment with abemaciclib for 1 week; assay type: cell-based, human; settings: IGR37 (RB1-sufficient); abemaciclib 1 week; 10% prior to treatment
Description: (§1) To determine this effect in melanoma, Applicants identified melanoma cell lines in the Cancer Cell Line Encyclopedia (CCLE) with the strongest expression of the uICR signature, including IGR37, UACC257 (both RB-sufficient) and A2058 (RB-deficient). Applicants performed scRNA-seq on these cell lines before and after treatment with abemaciclib for 1 week (FIG. 41). In both IGR37 and UACC257, Applicants saw a decrease in the expression of the uICR state (P<3.59*10^−34, one-sided t-test). […] This population decreased from 10% before treatment (2,454 cells) to 2% in the post-treatment condition (1,570 cells).
(§2) To test this hypothesis, Applicants studied the effect of abemaciclib on the immune resistance program in melanoma cell lines. […] Applicants profiled each cell line with scRNA-seq before and after treatment with abemaciclib for 1 week (FIGS. 49D-E), analyzing over 23,000 cells in these and follow-up conditions (below). […]
(§3) Established melanoma cell lines […] and A2058 were acquired from the Cancer Cell Line Encyclopedia (CCLE) from the Broad Institute. […] Cells were lifted off culture dishes using Versene solution (Life Technologies), washed twice in 1×PBS, counted and resuspended in PBS supplemented with 0.04% BSA for loading for scRNA-seq with the 10X Genomics platform.

[2] = tested on: UACC257; assay: as above; assay type: cell-based, human; settings: UACC257 (RB1-sufficient); abemaciclib 1 week; 10% prior to treatment
Description: as §1, §2, §3

[3] = tested on: human melanoma cells (Melanoma cell line 2686); assay: Abemaciclib doubling time and cytostatic effect; assay type: cell-based; settings: abemaciclib 500 nM
Method: Cell number and viability were determined using the Countess™ II FL Automated Cell Counter (ThermoFisher) on days 2, 4 and 6. All experiments were performed in triplicates. Cell doubling per 24 hours was determined based on cell numbers comparing cells seeded and on day 6 using the following formula: duration (in days) x log(2)/log(final cell number) - log(initial cell number).

[4] = tested on: melanoma cells; assay: Measurement of 40 human cytokines/chemokines in conditioned media of abemaciclib or DMSO treated cancer cells

CCN1CCN(Cc2ccc(Nc3ncc(F)c(-c4cc(F)c5nc(C)n(C(C)C)c5c4)n3)nc2)CC1 [abemaciclib]
fraction of cells with exceptionally strong expression of the immune resistance (uICR) program ("immune resistant" cells) post-treatment [1]: 2% | fraction of cells with exceptionally strong expression of the immune resistance program ("immune resistant" cells) post-treatment [2]: 1% and 0.6% | cytotoxic effects [3]: do not find significant cytotoxic effects | rate of proliferation ([3]; DMSO 0.64): 0.3 doublings/24 hrs | Fold change (abemaciclib vs. DMSO treatment) ([4]; Hu 6Ckine/CCL21): 0.9700 | Fold change (abemaciclib vs. DMSO treatment) ([4]; Hu CTACK/CCL27): 1.0834 | Fold change (abemaciclib vs. DMSO treatment) ([4]; Hu ENA-78/CXCL5): 1.0188 | Fold change (abemaciclib vs. DMSO treatment) ([4]; Hu Eotaxin-3/CCL26): 3.0279 | Fold change (abemaciclib vs. DMSO treatment) ([4]; Hu Eotaxin/CCL11): 0.9599 | Fold change (abemaciclib vs. DMSO treatment) ([4]; Hu Fractalkine/CX3CL1): 2.1863 | Fold change (abemaciclib vs. DMSO treatment) ([4]; Hu GCP-2/CXCL6): 0.6386 | Fold change (abemaciclib vs. DMSO treatment) ([4]; Hu GM-CSF): 1.0191 | Fold change (abemaciclib vs. DMSO treatment) ([4]; Hu Gro-a/CXCL1): 0.9135 | Fold change (abemaciclib vs. DMSO treatment) ([4]; Hu Gro-b/CXCL2): 0.7471 | Fold change (abemaciclib vs. DMSO treatment) ([4]; Hu I-309/CCL1): 1.0389 | Fold change (abemaciclib vs. DMSO treatment) ([4]; Hu I-TAC/CXCL11): 0.9524 | Fold change (abemaciclib vs. DMSO treatment) ([4]; Hu IL-1b): 1.0719 | Fold change (abemaciclib vs. DMSO treatment) ([4]; Hu IL-2): 0.5882 | Fold change (abemaciclib vs. DMSO treatment) ([4]; Hu IL-4): 1.6605 | Fold change (abemaciclib vs. DMSO treatment) ([4]; Hu IL-6): 0.3788 | Fold change (abemaciclib vs. DMSO treatment) ([4]; Hu IL-8): 0.7253 | Fold change (abemaciclib vs. DMSO treatment) ([4]; Hu IL-10): 1.0079 | Fold change (abemaciclib vs. DMSO treatment) ([4]; Hu IL-16): 0.8482 | Fold change (abemaciclib vs. DMSO treatment) ([4]; Hu IP-10/CXCL10): 0.9103 | Fold change (abemaciclib vs. DMSO treatment) ([4]; Hu MCP-1/CCL2): 0.7175 | Fold change (abemaciclib vs. DMSO treatment) ([4]; Hu MCP-2/CCL8): 1.0388 | Fold change (abemaciclib vs. DMSO treatment) ([4]; Hu MCP-3/CCL7): 1.0422 | Fold change (abemaciclib vs. DMSO treatment) ([4]; Hu MCP-4/CCL13): 0.8887 | Fold change (abemaciclib vs. DMSO treatment) ([4]; Hu MDC/CCL22): 1.1142 | Fold change (abemaciclib vs. DMSO treatment) ([4]; Hu MIF): 2.9587 | Fold change (abemaciclib vs. DMSO treatment) ([4]; Hu MIP-1a/CCL3): 1.0350 | Fold change (abemaciclib vs. DMSO treatment) ([4]; Hu MIP-3a/CCL20): 3.4000 | Fold change (abemaciclib vs. DMSO treatment) ([4]; Hu MIP-3b/CCL19): 0.8717 | Fold change (abemaciclib vs. DMSO treatment) ([4]; Hu MIP-1d/CCL15): 1.0809 | Fold change (abemaciclib vs. DMSO treatment) ([4]; Hu SCYB16/CXCL16): 1.1278 | Fold change (abemaciclib vs. DMSO treatment) ([4]; Hu SDF1a + b/CXCL12): 0.8885 | Fold change (abemaciclib vs. DMSO treatment) ([4]; Hu TARC/CCL17): 1.0104 | Fold change (abemaciclib vs. DMSO treatment) ([4]; Hu TECK/CCL25): 1.5510 | Fold change (abemaciclib vs. DMSO treatment) ([4]; Hu TNF-a): 0.7465
